Laboratory results from patent publication US9303017B2, “2,5-disubstituted-pyridyl nicotinic ligands, and methods of use thereof” (Georgetown University, priority 2011, dated 2016).
Counter-ions that a name gives are not always drawn. Like-named read-outs stand apart in the source and are kept apart here.

How the values were obtained:
rat α3β4 nAChRs = rat α3β4 nAChRs (Rattus norvegicus (Rat), UniProt P04757+P12392); assay: 86Rb+ efflux assay (activation and desensitization), α3β4; type: cell-based; details: for Emax: read-out: Emax α3β4 nAChRs
Procedure: (§1) In Vitro Effects on nAChR Function. […] Their agonist activities were assessed by measuring stimulated ^86Rb^+ efflux from stably transfected cells, either expressing human α4β2 nAChRs or rat α3β4 receptors.
(§2) Cell Lines and Cell Culture. The cell lines expressing defined rat nAChR subtypes were established previously by stably transfecting HEK 293 cells with rat nAChR subunit genes. The cell line expressing human α4β2 nAChRs, YXα4β2H1, was established recently. These cell lines were maintained in minimum essential medium (MEM) supplemented with 10% fetal bovine serum, 100 units/mL penicillin G, […] and selective antibiotics at 37° C. with 5% CO2 in a humidified incubator. Fetal bovine serum was provided by Gemini Bio-Products (Woodland, Calif.). Tissue culture medium and antibiotics were obtained from Invitrogen Corporation (Carlsbad, Calif.), unless otherwise stated.
(§3) ^86Rb^+ Efflux Assay. Functional properties of compounds at nAChRs expressed in the transfected cells were measured using ^86Rb^+ efflux assays as described previously. In brief, cells expressing human α4β2 or rat α3β4 nAChRs were plated into 24-well plates coated with poly-D-lysine. The plated cells were grown at 37° C. for 18 to 24 hour to reach 85-95% confluence. The cells were then incubated in growth medium (0.5 mL/well) containing ^86Rb^+ (2 μCi/mL) for 4 hour at 37° C. The loading mixture was then aspirated, and the cells were washed four times with 1 mL buffer (15 mM HEPES, 140 mM NaCl, 2 mM KCl, 1 mM MgSO4, 1.8 mM CaCl2, 11 mM Glucose, pH 7.4). One mL of buffer with or without compounds to be tested was then added to each well. After incubation for 2 min, the assay buffer was collected for measurements of ^86Rb^+ released from the cells. Cells were then lysed by adding 1 mL of 100 mM NaOH to each well, and the lysate was collected for determination of the amount of ^86Rb^+ that was in the cells at the end of the efflux assay. Radioactivity of assay samples and lysates was measured by liquid scintillation counting. Total loading (cpm) was calculated as the sum of the assay sample and the lysate of each well. The amount of ^86Rb^+ efflux was expressed as a percentage of ^86Rb^+ loaded. […] For obtaining EC50 and Emax values, stimulation curves were constructed in which 8 different concentrations of a ligand were included in the assay. […] EC50, Emax and IC50(10′) values were determined by nonlinear least-squares regression analyses (GraphPad, San Diego, Calif.).
(§4) The functional properties of the ligands were determined by ^86Rb^+ efflux assays in cells expressing α3β4 and α4β2 nAChR subtypes. The functional activity of each ligand was measured for its agonism, antagonism and desensitization ability. Agonist activity for each of the ligands was tested at eight different concentrations. […] The full concentration-effect curves generated potency (EC50) and efficacy (Emax) of each ligand. […] We tested each ligand for antagonist activity at eight concentrations. The potency (IC50(0′)) of each ligand as an antagonist was derived from the full concentration-effect curves.

human α4β2 nAChRs = human α4β2 nAChRs (Homo sapiens (Human), UniProt P17787+P43681); assay: 86Rb+ efflux assay (activation and desensitization), α4β2; type: cell-based; details: for Emax: read-out: Emax α4β2 nAChRs; for EC50: agonist activity; for IC50: desensitization
Procedure: as §1, §2, §3, §4

α3β4 nAChR = α3β4 nAChR (Rattus norvegicus (Rat), UniProt P04757+P12392); assay: [3H]-epibatidine competition binding, α3β4
Procedure: (§5) In Vitro Binding Affinities for nAChR Subtypes. […] To determine selectivities of these compounds in binding assays among the three predominant nAChR subtypes, α3β4, α4β2 and α7, the ratios of Ki values (α3β4/α4β2 and α7/α4β2) were determined.
as §2
(§6) Briefly, cultured cells at >80% confluence were removed from their flasks (80 cm^2) with a disposable cell scraper and placed in 10 mL of 50 mM Tris.HCl buffer (pH 7.4, 4° C.). The cell suspension was centrifuged at 10,000×g for 5 min and the pellet was collected. The cell pellet was then homogenized in 10 mL buffer with a polytron homogenizer and centrifuged at 36,000 g for 10 min at 4° C. The membrane pellet was resuspended in fresh buffer, and aliquots of the membrane preparation were used for binding assays. […] Bound and free ligands were separated by vacuum filtration through Whatman GF/C filters treated with 0.5% polyethylenimine. The filter-retained radioactivity was measured by liquid scintillation counting. Specific binding was defined as the difference between total binding and nonspecific binding. Data from competition binding assays were analyzed using Prism 5 (GraphPad Software, San Diego, Calif.).
(§7) Pharmacological Properties. We measured the in vitro binding affinities of the ligands for defined receptor subtypes (α2β2, α2β4, α3β2, α3β4, α4β2, α4β4, α6β2, α6β4, and α7) expressed in stably transfected cell lines. […] Rat forebrain homogenates were included to allow comparison between the heterologous and native α4β2 and α7 nAChRs. See Table 1 for binding affinity values (Ki) of the ligands at the three major nAChR subtypes (α3β4. α4β2 and α7).

α4β2 nAChR = α4β2 nAChR (Rattus norvegicus (Rat), UniProt P09483+P12390); assay: biochemical; type: binding; details: for Ki Ratio α3β4/α4β2: selectivity for α4β2 over α3β4; for Ki Ratio α7/α4β2: selectivity for α4β2 over α7
Procedure: as §5, §2, §6, §7

α7 nAChR = α7 nAChR (Rattus norvegicus (Rat), UniProt Q05941); type: binding
Procedure: as §5, §2, §6, §7

ferrets = assay: Emesis studies in ferrets; type: in vivo, ferret (Mustela putorius furo); details: 0.5 mg/kg s.c.
Procedure: Emetic Effects of Compound (S)-15 (YL-1-127) in Ferrets. Effects of (S)-15 in causing nausea and emesis were assessed in a ferret model. For comparison, varenicline was also tested. […] In general, all animals remained alert and active with periods of inactivity that mirrored their baseline behavior within the 1 hr observation period.
In one animal, this behavior was accompanied by oral stereotypy (licking), whereas in two animals it was interspersed by episodes of backward walking. On the average, these behaviors manifested around ˜2.20 min. […] Occasionally, when animals tried to ambulate they would immediately cease their movement after each attempt. This would be followed by a momentary increase in breathing, giving the impression that the animal was in distress.
General Procedures for Emesis Studies in Ferrets. Studies were undertaken in male ferrets (Mustela putorius furo) weighing 0.9-1.5 kg (Marshall Farms, N.Y.). They were housed in controlled conditions of room temperature (22° C.) and light (12:12 h light-dark cycle) with free access to food and water. Prior to each experiment, food was withheld overnight, whereas water was provided ad libitum.
Emetic testing consisted of placing animals individually in a polycarbonate enclosure. Following a 30 min acclimation period, each animal randomly received a subcutaneus injection of varencline or compound (S)-15 (YL-1-127) in the subscapular region. A 60 min observation and video recording followed the drug administration. […] All drugs were dissolved in sterile saline.
Video analysis of the incidence of emesis, stereotypical behaviors (such as licking, mouth-clawing, backward walking, gagging, and burying of the head in cage) and GI side effects (diarrhea) was done off-line. Stereotypical behaviors are thought to be reflective of a subjective sensation of nausea. The emetic index of a drug was calculated as the […] of animals displaying emesis (one or more times in 60 min) divided by the total number of animals tested. An emetic episode was defined as the forceful oral expulsion of liquid or solid upper gastrointestinal contents that is temporally separated from another by at least 30 s.
The Nausea Index for the stereotypical behaviors was derived from the mean±SEM number of nausea behaviors observed among all animals in a given treatment group. Significance was determined at p<0.05.

[1] = Table 3 (Example 4), read-out: Ki α4β2
[2] = Table 1, mean of 3 to 5 measurements
[3] = Table 1, mean of 3 to 5 measurements, read-out: Ki α4β2
[4] = read-out: IC50(10′) α3β4 nAChRs
[5] = ND = no significant stimulated efflux detected
[6] = agonist efficacy normalized to Emax of nicotine, ND = no significant stimulated efflux detected
[7] = 10 min pre-treatment, Table 3 (Example 4), read-out: IC50(10′) α4β2
[8] = 10 min pre-incubation before 100 μM nicotine, Table 2, read-out: IC50(10′) α4β2 nAChRs

Row | SMILES | Ki (α3β4 nAChR; Table 3 (Example 4)) | Ki (α4β2 nAChR; [1]) | Ki Ratio α3β4/α4β2 (α4β2 nAChR) | Ki Ratio α7/α4β2 (α4β2 nAChR) | Ki (α3β4 nAChR; [2]) | Ki (α4β2 nAChR; [3]) | Ki (α7 nAChR; Table 3 (Example 4)) | IC50 (rat α3β4 nAChRs; [4]) | EC50 (human α4β2 nAChRs; [5]) | Emax (human α4β2 nAChRs; [6]) | IC50 (human α4β2 nAChRs; [7]) | IC50 (human α4β2 nAChRs; [8]) | further results
1 | CN1CCC[C@H]1c1cccnc1 [(—)-Nicotine, (−)-nicotine, reference compound] |  |  |  |  |  |  |  |  |  |  |  |  | Emax α3β4 nAChRs (rat α3β4 nAChRs): full agonist activities; Emax (human α4β2 nAChRs): 100%
2 | CCCCC#Cc1cnc(C)c(OC[C@H]2CCCN2)c1 [(R)-16, (R)-5-(hex-1-ynyl)-2-methyl-3-(pyrrolidin-2-ylmethoxy) pyridine] | 22 µM | 9900 nM | 22 | 11 |  |  |  |  |  |  |  |  | Ki (α7 nAChR; [2]): 110 µM
3 | CCCCC#Cc1cnc(C)c(OC[C@H]2CCN2)c1 [(R)-15, (R)-3-(azetidin-2-ylmethoxy)-5-(hex-1-ynyl)-2-methylpyridine] |  |  | 270 | 220 | 200 µM | 740 nM | 120 µM |  |  |  |  |  | Ki (α7 nAChR; [2]): 160 µM
4 | Cc1ncc(C#CC2CC2)cc1OC[C@@H]1CCN1 [(S)-27, (S)-3-(azetidin-2-ylmethoxy)-5-(cyclopropylethynyl)-2-methylpyridine] | 150 µM |  | 16,000 | 16,000 | 150 µM | 9.6 nM | 150 µM | > 10 µM | 0.16 µM | < 20% | 0.011 µM | 0.11 µM | IC50 (rat α3β4 nAChRs; read-out: IC50(10′) α3β4): 36 µM
5 | CCCCC#Cc1cnc(C(F)(F)F)c(OC[C@@H]2CCN2)c1 [compound 32, (S)-3-(azetidin-2-ylmethoxy)-5-(hex-1-ynyl)-2-(trifluoromethyl)pyridine hydrochloride] |  |  |  |  | > 100 µM |  |  |  |  |  |  |  | Ki (α4β2 nAChR): > 100000 nM
6 | c1cnc2cc3c(cc2n1)[C@@H]1CNC[C@H]3C1 [Varenicline] |  |  |  |  |  |  |  |  |  |  |  |  | Emax (rat α3β4 nAChRs): 90%; gagging (retching), mean # of episodes (ferrets): 2.80 ± 1.63; time post-injection at which locomotor behavior was noticeably reduced (ferrets): ~1.05 min; emetic episodes (ferrets; 1 hr observation): no emetic episodes were observed; time at which nausea behaviors manifested (ferrets; average): ~2.20 min; animals with drug induced nausea (gagging) (ferrets; animals affected/tested): 4/5
7 | OCCCCC#Cc1cncc(OC[C@@H]2CCN2)c1 [Sazetidine-A, reference compound] | 1.9 µM | 0.062 nM | 31,000 | 11,000 |  |  | 1.6 µM | > 10 µM | 0.024 µM | 40% | 0.0075 µM | 0.012 µM | EC50 (rat α3β4 nAChRs; agonist activity, ND = no significant stimulated efflux detected): 24 µM; IC50 (rat α3β4 nAChRs; desensitization, 10 min pre-treatment, Table 3 (Example 4), read-out: IC50(10′) α3β4): > 10 µM; Emax (rat α3β4 nAChRs): 17%
8 | Cc1ncc(C#CCCCCO)cc1OC[C@@H]1CCN1 [(S)-17, (S)-6-(5-(azetidin-2-ylmethoxy)-6-methylpyridin-3-yl)hex-5-yn-1-ol] | 250 µM |  | 70,000 | 40,000 |  | 4.3 nM | 170 µM | > 10 µM | 0.063 µM | < 20% | 0.042 µM | 0.051 µM | reduction in binding affinity for α4β2 nAChRs (α4β2 nAChR; relative to Sazetidine-A): 70 fold; IC50 (rat α3β4 nAChRs; read-out: IC50(10′) α3β4): 50 µM
9 | CCCCC#Cc1cnc(C)c(OC[C@@H]2CCCN2)c1 [(S)-16, (S)-5-(hex-1-ynyl)-2-methyl-3-(pyrrolidin-2-ylmethoxy)pyridine] | 94 µM | 73 nM |  |  |  |  | 81 µM | 6.4 µM |  |  |  | 1.6 µM | Emax α4β2 nAChRs (human α4β2 nAChRs; [6]): didn't show detectable agonist activity
